# Experimental data from patent publication US10736968B2, “Cellular signalling inhibitors, their formulations and methods thereof” (INVICTUS ONCOLOGY PVT. LTD., priority 2016, dated 2020).
# Tested on: macrophages
# Assay: Repolarization of IL4-skewed M2 macrophages to M1-like state after washout (FACS)
# Format: cell-based
# Conditions: IL4 24 hours, inhibitor 4 hours, washed, fresh media 12-72 hours
# Method: Activity Studies of Compound of Formula I • Efficacy of BLN101 vs BLZ945 on the ability to inhibit CSF1R in vitro is studied. RAW264.7 cells are treated with BLZ945 (67 nM) or BLN101 (67 nM) for different time points, at the end of which the cells were exposed to CSF1 (10 ng/ml) for 20 min. The cells were then lysed and analyzed for phosphorylated CSF1R levels. […] Efficacy of BLN101 (in formulation AK750) vs BLZ945 on increase in iNOS expression in vitro is studied. It is observed that exposure to Tumor Conditioned Media over 24 h decreases INOS levels. Measurement of the expression of iNOS in RAW264.7 cells at different time points after treatment with B-16-tumour conditioned media followed by BLZ-945 or BLN101 (as AK750 formulation) treatment across different time points. […] Treatment of monocytes with IL4 is known to facilitate the differentiation of monocytes into macrophages. Further, activation of CSF1R skews it to a M2 phenotype. […] At different time points analysis of the cells for expression of markers CD11b+CD206+, CD11b+MHC-II+, CD11b+CD86+ and CD11b+CD80+ on the cells using flow cytometry. […] (FIG. 4). […] At different time-points, the cells are harvested and analyzed the population for M1 (MHCII+, CD86+, CD80+) or M2 (CD206+) markers using fluorescence activated cell sorting (FIG. 5d). […]
smiles,measurement,value
CNC(=O)c1cc(Oc2ccc3nc(N[C@@H]4CCCC[C@H]4O)sc3c2)ccn1 [BLZ-945],"M1 markers (MHCII+, CD86+, CD80+)",did not increase the M1 markers
same,M2 phenotype (CD206+),"at early time-points is observed, but this effect was lost at later time points"
